Test results reported in patent US20060241067A1, “Methods For inhibiting angiogenesis, cell migration, cell adhesion, and cell survival” (priority 2002, published 2006).

Columns and labels:
[1] = tested on: Human umbilical vein endothelial cells (HUVEC); assay: Endothelial cell migration assay (transwell) on ECM substrates; format: cell-based; conditions: 250 μM dibutyryl cAMP or transient transfection with expression constructs
Experimental: (§1) Human umbilical vein endothelial cells (HUVEC) were grown in Endothelial Growth Medium (containing 2% fetal bovine serum, bFGF and VEGF) (Clonetics, San Diego, Calif.). To render HUVECs quiescent for Rac and/or Rho assays, monolayers of endothelial cells were incubated for 18 hrs in Endothelial Basal Medium supplemented with 0.1% serum (Clonetics). Cell migration and adhesion assays on ECM substrates were performed as previously described in Kim et al. (S. Kim et al., Amer. J. Biol. Chem., 275:33920-33928 (2000); and S. Kim et al., Amer. J. Path., 156:1345-1362 (2000)).
Migration assays were performed essentially as described (Kim, et. al., 2000). […] HUVECS (25,000) were added to the upper chamber of inserts in migration buffer (Hepes buffered M199 medium containing 1% BSA, 2 mM MgCl2, 2 mM CaCl2 and 0.2 mM MnCl2) containing 25 μg/ml of various antibodies. In some experiments, 250 μM dibutyryl cAMP was placed in the upper and lower chambers of the transwell. Cells were allowed to migrate from the upper to the lower chamber for four hours at 37° C. The number of cells which had migrated were counted in three representative high power (200×) fields per insert. The data are presented as number of cells migrating+/−standard error of the mean. Migration assays were similarly performed on transfected cells. In this case, migrated transfected cells were identified by fluorescent microscopy and counted.

Rho = Rho activity assay (GST-Rhotekin binding domain affinity precipitation); format: cell-based, human; conditions: cells attached to vitronectin 15 minutes; 250 μM dibutyryl cAMP or transfection
Experimental: as §1
Rho activity was determined by measuring the amount of Rho affinity bound to GST-Rhotekin binding domain (RBD). Levels of active Rho were determined by Western blotting affinity precipitated protein with anti-Rho antibodies while total Rho levels were measured by immunoblotting total cell lysates with anti-Rho. Rac activity was determined by measuring the amount of Rac affinity precipitated by the GST-p21-activated protein binding domain, PBD (Upstate Biotechnology, Syracuse, N.Y.). Levels of active Rac were determined by immunoblotting affinity precipitated protein with anti-Rac antibodies. […] Total Rac levels were measured by immunoblotting total cell lysates with anti-Rac.

protein kinase A = assay: PKA activity assay in HUVECs; format: cell-based, human; conditions: for PKA activity in endothelial cells: 10 μM PTHrP or 250 μM dibutyryl cAMP
Experimental: PKA activity was measured in HUVECs essentially as previously described in Kim et al (S. Kim et al., Amer. J. Biol. Chem., 275:33920-33928 (02000)). HUVECs were placed in suspension, allowed to attach to ECM protein coated plates in the absence or presence of anti-integrin antibodies or were treated with 10 μM PTHrP and/or 250 μM cAMP. PKA activity was measured at various times from 0-4 hrs (e.g., 2-30 min).
Plates were washed and blocked in 3% bovine serum albumin for 1 hour at 37° C. HUVECS were trypsinized and resuspended in adhesion buffer (Hanks balanced salt solution supplemented with 10 mM HEPES, pH 7.4, 2 mM MgCl2, 2 mM CaCl2, 0.2 mM MnCl2, 1% BSA. Cells were plated on matrix protein coated plates in culture medium or in the presence of 25 μg/ml anti-α5β1, anti-αvβ3 or anti-α2β1 antibodies for various times from 0 minutes to 4 hours. Plates were washed with phosphate buffered saline and cells were extracted with cold extraction buffer (50 mM Tris, pH 7.5, 5 mM EDTA, 25 μg/ml aprotinin and 25 μg/ml leupeptin). Protein Kinase A activity was assessed using a kit from Gibco BRL. Briefly, equal volumes of lysate and reaction mixture containing final concentrations of 50 mM Tris, pH 7.5, 10 mM MgCl2, 0.25 mg/ml BSA, 50 μM Kemptide (a protein kinase A substrate), 3000 Ci/mmol (γ^32 P) ATP and 100 μM ATP were combined for 5 minutes at 30° C. Total PKA in each sample was measured by performing the assay in the presence of 10 μM cAMP. Background PKA activity in test and total PKA samples were determined by performing the assay in the presence of a PKA inhibitor peptide, PKI (6-22) amide. Twenty μl samples of reaction mixtures were spotted onto phosphocellulose discs and washed repeatedly with 1% (v/v) phosphoric acid in water. Incorporated radioactivity was determined by scintillation counting. Activated PKA was calculated from the ratio of pmol/min test sample PKA to pmol/min total PKA. PKA activity in triplicate samples was measured and experiments were repeated at least three times.
In another embodiment, PKA assays were performed with a kit from Calbiochem (San Diego, Calif.). Cell lysates were incubated in ELISA plates coated with a PKA peptide substrate, then incubated with anti-phosphoserine antibodies. Bound antibody was detected after incubation with anti-rabbit IgG-horse radish peroxidase. Statistical analyses were performed using Student's t-test.

[2] = after stimulation of endothelial cells

CCCC(=O)Nc1ncnc2c1ncn2[C@@H]1O[C@@H]2COP(=O)(O)O[C@H]2[C@H]1OC(=O)CCC [dibutyryl cAMP]
endothelial cell migration on vitronectin [1]: quantitatively inhibits endothelial cell migration | Rho activity (GTP-loading) (Rho): stimulates Rho activity (GTP-loading) | PKA activity in endothelial cells (protein kinase A): rapidly stimulate PKA activity in endothelial cells | PKA activity in endothelial cells (protein kinase A; listed as cell permeable cAMP): activates PKA | time at which PKA activation is detected (protein kinase A; [2]): 2 min | time of maximal PKA activity (protein kinase A; [2]): 15 min
